This is an account of results in patent publication US20230103444A1 (The Regents of the University of Colorado, a Body Corporate, priority 2020, published 2023).

Each structure is given as a SMILES string. Read-outs that look alike come from different tables or passages of the source. A value given as a limit tells only on which side of the number the result lay.

The term IC50 denotes the point on the concentration scale where inhibition reaches its midpoint.

In data set [1] the test system is SW620 tumor organoids.
Data set [2] in a line: Human microsomal stability. In kind it is in vitro ADME. The note with it: human microsomes, Table 6, read-out: Microsomal stability Human t1/2.
The subject of a further data set is HCT116 tumor organoids. Briefly: Tumor organoid cytotoxicity (CellTiter-Glo 3D). In kind it is cell-based, human. The conditions noted are these: Homo sapiens. The procedure:
(§1) Cell based cytotoxicity dose response and combination studies. […] Plates were then incubated for 3 days before treatment.
Cell Line Tumor Organoid Culture.
(§2) Tumor Organoid Cytotoxicity.

The nature of data set [3]: Pharmacokinetics in CD-1 mice. The note with it: oral gavage (p.o.) 50 mg/kg. The procedure: Whole blood was harvested at specific time points and the separated plasma frozen at −80° C. for storage or used for LC-MS/MS analysis.
In data set [4] the test system is SW620 tumor organoids. Kind of data set: Synergy studies with SN38 (LOEWE synergy scores). Also noted: key to LOEWE Synergy Score: % response beyond expectation; <-10 antagonism, -10–10 additive, >10 synergy. The note with it: for LOEWE Synergy Score: compound at its IC50 (6: 5 μM; 6.3, 6.11: 3 μM). In kind it is cell-based, human. As to the method:
as §1
(e.g., synergy score 20 corresponds to 20% of response beyond expectation). According to our experience, the synergy scores near 0 gives limited confidence on synergy or antagonism.
When the synergy score is: • Less than −10: the interaction between two drugs is likely to be antagonism; • From −10 to 10: the interaction between two drugs is likely to be additivity; • Larger than 10: the interaction between two drugs is likely to be synergy.

For data set [5], the system named is CRC102 patient-derived tumor organoids. Briefly: Patient tumor organoid cytotoxicity. The format is cell-based. The note with it: Homo sapiens; single agent, Table 4A. The procedure: Patient Cell Tumor Organoid Culture. CRC048 and CRC102 patient cell samples were expanded and cultured as PDTOs using reported methodologies and reagents. (Drost et al., 2016; Sato et al., 2011) Briefly, patient cells were washed with PBS, digested with TrypLE, and filtered through 100 μm cell strainer before used in 3D cell culture. Patient cells were seeded at 5,000 cells per well in 96-well plates, coated with 2% Matrigel, and allowed to self-assemble as PDTOs over 72 h.
as §2

The subject of data set [6] is SW620 tumor organoids. Briefly: Tumor organoid cytotoxicity (CellTiter-Glo 3D). The note with it: Homo sapiens. Background: ATP-based viability assays read luminescence as a measure of living cells.
A short description of data set [7]: Mouse liver microsome stability. The note with it: CD-1, mouse, liver microsomes, pH 7.4, Microsomal stability Mouse t1/2 (min), Table 6. On the technique in general: Microsomes from liver hold many membrane-bound enzymes, among them those of drug oxidation.
Data set [8] deals with CRC042 patient-derived tumor organoids. Briefly: Patient tumor organoid cytotoxicity. In kind it is cell-based. The conditions noted are these: Homo sapiens; single agent, Table 4A.
Data set [9] deals with SW620 quasi-mesenchymal (GFP+) tumor xenografts. Kind of data set: Antitumor activity by oral gavage against SW620 quasi-mesenchymal (GFP+) xenografts. In kind it is in vivo, athymic nude mice. The procedure:
(Esquer et al., 2021) Five days after cell injection, injected mice were randomized into three groups for treatment (Tx). Group 1 (12 mice) received control treatment of gavage vehicle (10% DMSO, 90% PEG 400 (polyethylene glycol 400) by volume). […] Mice were treated once a day, 5 days a week PO (via oral gavage). Mice were weighed and tumor volume assessed twice a week by caliper measurement as illustrated in FIGS. 21A and 21B. At sacrifice, tumors were weighed and measured. In addition, gross observations on condition of mice were made and samples of plasma, tumors, liver spleen and kidneys were collected for further assessment, e.g., drug quantification and toxicity assessment.

Setting [10] is: combination of 6.11 and irinotecan.

Protocol for SW620 tumor xenografts: In vivo studies. […] Body weight and tumor volumes were monitored 2×/week. […] In addition, irinotecan was administered i.p. at 50 mg/kg.

Turning to `Cc1cc(Nc2ccc(NC(=O)Cn3cnc4ccccc43)cc2)nc(N2CCCC2)n1` [Compound 6.28, 2-(1H-benzo[d]imidazole-1-yl)-N-(4-((6-methyl-2-(pyrrolidin-1-yl)pyrimidin-4-yl)amino)phenyl) acetamide], the IC50 in the data set on SW620 tumor organoids [1] was more than 30 µM.

Regarding `Cc1cc(Nc2ccc(NC(=O)Cc3cc(Br)cs3)cc2)nc(N2CCCC2)n1` [Compound 6.11, 2-(4-bromothiophen-2-yl)-N-(4-((6-methyl-2-(pyrrolidin-1-yl)pyrimidin-4-yl)amino)phenyl)-acetamide], the half-life in data set [2] was 4.38 h. The half-maximal inhibitory concentration (IC50) in the data set with HCT116 tumor organoids (HCT-116, 72 h, Table 6, read-out: 3 D Cytotoxicity 72 hr IC50 (μM) HCT116) is 3.5 µM; with HCT116 tumor organoids (HCT-116, single agent, Table 4A, read-out: Tumor Organoid Cytotoxicity IC50 (μM) HCT116) it was 3.48 µM; in data set [5] it was 8.38 µM; with SW620 tumor organoids [6] (SW-620, 72 h, read-out: 3 D Cytotoxicity 72 hr IC50 (μM) SW620) it was 2.6 µM; with SW620 tumor organoids [6] (SW-620, read-out: IC50 of cytotoxicity in SW620 cells), less than 10 µM; with SW620 tumor organoids [6] (SW-620, read-out: Tumor Organoid Cytotoxicity IC50 (μM) SW620), 2.6 µM. The molecule further displayed a half-inhibitory concentration (IC50) in [8] of 4.5 µM. Besides, in data set [3], the “oral bioavailability, uptake in the plasma” value turned out to be 44%. Moreover, the “LOEWE Synergy Score” value is reported as 46 in the data set with SW620 tumor organoids [4] (SN38 0.64 nM); 52 in the data set on SW620 tumor organoids [4] (SN38 16 nM); 49 with SW620 tumor organoids [4] (SN38 80 nM); 48 in the data set on SW620 tumor organoids [4] (SN38 400 nM); 36 with SW620 tumor organoids [4] (SN38 2000 nM); 25 in the data set on SW620 tumor organoids [4] (SN38 10000 nM). Also, in the data set on SW620 tumor organoids [4] (SN38 […]), the “LOEWE Synergy Score” value was 54. The “synergism with irinotecan (and SN38), in words” value in the data set with SW620 tumor organoids [4] (killing SW620 tumor organoids) was “synergism”. The half-life at 10 μM in data set [7] stood at 0.954 h. The mouse body weight entry in data set [9] (oral gavage 75 and 125 mg/kg vs vehicle) was “no significant difference in body weight”. Also, the tumor volume entry in data set [9] (oral gavage 75 and 125 mg/kg, once a day 5 days a week, 27 days) was “significant dose dependent decrease in tumor volume”. The “tumor volume, combination with irinotecan” value in the data set on SW620 tumor xenografts (6.11 1×/day + irinotecan 50 mg/kg i.p., up to 20 days, M-phenotype xenografts, vs irinotecan alone or control) is given as “significantly inhibits colorectal cancer SW620 tumor xenografts”. Besides, in the data set on SW620 tumor xenografts (6.11 + irinotecan vs irinotecan alone, last treatment day 33), the “tumor volume after the last treatment, combination with irinotecan” value is “significantly inhibits colorectal SW620 tumors beyond the last treatment”. Further, in the data set on SW620 tumor xenografts (6.11 + irinotecan, compared to irinotecan alone and control), the “survival of tumor-bearing mice, combination with irinotecan” value was “significantly increases the survival”. For the same molecule, in the data set on SW620 tumor xenografts (setting [10]), the “difference in tumor volume, irinotecan alone vs combination, 8 days post treatment” value stood at 3.4 fold. Further, the “drop of tumor volume post treatment” value in the data set on SW620 tumor xenografts (setting [10]) is approximately 1.5 fold.
